{"source": "ChEMBL document CHEMBL3808320", "about": "“1,4-Diphenalkylpiperidines: A new scaffold for the design of potent inhibitors of the vesicular monoamine transporter-2” (Bioorg Med Chem Lett, 2016)"}
{"molecular_target": "Synaptic vesicular amine transporter (Rattus norvegicus) (UniProt Q01827)", "sequence (Q01827 whole entry)": "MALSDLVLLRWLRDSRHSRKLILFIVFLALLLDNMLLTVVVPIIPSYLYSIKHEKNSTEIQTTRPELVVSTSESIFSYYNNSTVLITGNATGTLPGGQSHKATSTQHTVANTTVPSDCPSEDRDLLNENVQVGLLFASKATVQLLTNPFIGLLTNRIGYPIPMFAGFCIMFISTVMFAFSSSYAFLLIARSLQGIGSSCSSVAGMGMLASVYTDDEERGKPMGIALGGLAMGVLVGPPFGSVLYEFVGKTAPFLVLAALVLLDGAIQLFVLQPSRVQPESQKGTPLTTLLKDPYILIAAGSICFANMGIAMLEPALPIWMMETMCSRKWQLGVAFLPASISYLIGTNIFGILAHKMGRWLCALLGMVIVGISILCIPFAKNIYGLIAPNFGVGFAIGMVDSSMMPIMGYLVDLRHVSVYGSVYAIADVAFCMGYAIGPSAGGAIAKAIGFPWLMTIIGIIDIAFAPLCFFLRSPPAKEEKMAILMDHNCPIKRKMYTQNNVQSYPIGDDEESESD", "assay": "Potency index, ratio of lobelane Ki to compound Ki for VMAT2 in rat striata vesicles homogenate"}
{"compound": "COc1cccc(CCN2CCC(CCc3ccccc3OC)CC2)c1", "Ratio Ki": 4}
{"compound": "COc1ccccc1CCC1CCN(CCc2ccc(F)cc2)CC1", "Ratio Ki": 4}
{"compound": "COc1ccccc1CCC1CCN(CCc2ccccc2OC)CC1", "Ratio Ki": 4}
{"molecular_target": "T1, Synaptic vesicular amine transporter (Rattus norvegicus, UniProt Q01827)", "T1 sequence (Q01827 whole entry)": "as above", "assay": "Inhibition of [3H]DA uptake at VMAT2 in rat striata vesicles homogenate after 8 mins by liquid scintillation counting", "units": {"Ki": "µM"}}
{"compound": "c1ccc(CCC2CCN(CCc3ccccc3)CC2)cc1", "Ki": 0.12}
{"molecular_target": "Synaptic vesicular amine transporter (Rattus norvegicus) (UniProt Q01827)", "assay": "Potency index, ratio of lobelane Ki to compound Ki for VMAT2 in rat whole brain vesicles homogenate"}
{"compound": "COc1cccc(CCN2CCC(CCc3ccccc3OC)CC2)c1", "Ratio Ki": 5}
{"compound": "COc1ccccc1CCC1CCN(CCc2ccccc2OC)CC1", "Ratio Ki": 5}
{"molecular_target": "T1, Synaptic vesicular amine transporter", "assay": "Displacement of [3H]DTBZ from VMAT2 in rat whole brain vesicles homogenate after 30 mins by liquid scintillation counting", "assay_type": "tissue-based", "units": {"Ki": "µM"}}
{"compound": "COc1ccc(CCN2CCC(Cc3ccccc3)CC2)cc1", "Ki": 1.9}
{"compound": "COc1ccccc1CCN1CCC(Cc2ccccc2)CC1", "Ki": 2.8}
{"compound": "COc1ccccc1CCN1CCC(CCc2ccccc2)CC1", "Ki": 0.26}
{"compound": "COc1ccc(CCC2CCN(CCc3ccc(OC)cc3)CC2)cc1", "Ki": 2.5}
{"compound": "COc1cccc(CCN2CCC(CCc3ccccc3)CC2)c1", "Ki": 0.27}
{"compound": "COc1cccc(CCN2CCC(Cc3ccccc3)CC2)c1", "Ki": 1.5}
